In US10471080B2, “Use of trehalose for prevention of neural tube defects” (UNIVERSITY OF MARYLAND, BALTIMORE, priority 2012, dated 2019):
Each block holds one compound with its values, some of them ahead of it.

What was measured:
[1] = tested on: ER stress and JNK1/2 activation; experiment: ER stress markers and JNK1/2 activation in E8.75 embryos; assay type: in vivo, mouse; details: diabetic group with 5% trehalose
[2] = tested on: neuroepithelial cell apoptosis; experiment: Pro-apoptotic Bcl-2 members, caspase cleavage and TUNEL assay in E8.75 embryos; assay type: in vivo, mouse; details: diabetic group with 5% trehalose
Experimental: TUNEL assay. TUNEL assay was performed as previously described (21, 22). Briefly, 5-μm serial coronal sections through the forebrain-midbrain (FB-MB) boundary of the anterior neural tube were fixed with 4% PFA in PBS and incubated with TUNEL reaction agents. Closure at the FB-MB boundary is an essential step for closure of the anterior neural tube, and failed closure in this area results in exencephaly (2, 8). TUNEL-positive cells were counted in the neural tube area of each section. Based on the counting of total cell nuclei, the sizes of the neural tube areas of each section were relatively constant. Thus, apoptotic cell numbers were expressed as total TUNEL-positive cells per neural tube area. TUNEL assays were performed without the observer knowing the experimental group of the embryo examined.

neuroepithelial cells = experiment: Electron microscopy of autophagosomes and mitochondria in E8.75 neuroepithelia; assay type: in vivo, mouse
Description: Electron microscopy. The structures of autophagosome and mitochondria were examined by transmission electron microscopy (EM) in the University of Maryland EM core facility. Thick sections (1 μm) were cut and visualized at ×100 magnifications to identify the neuroepithelia of E8.75 embryos. Thin sections (80 nm) of identified neuroepithelia were cut and viewed with an electron microscope (Joel JEM-1200EX; Tokyo, Japan) under high-power resolution (10, 12 and 25 K) for identification of cellular organelle structures.

[3] = Trehalose measurement in maternal serum and embryos (Trehalose Kit, Megazyme); assay type: in vivo, mouse; details: diabetic dams
Experimental: (§1) Trehalose treatment and trehalose measurement. Concentrations of either 2% or 5% (gram/volume [ml]) trehalose (Cat#: T9531, Sigma) were given to WT nondiabetic and diabetic pregnant mice at E5.5 in drinking water. Trehalose levels in maternal serum and embryos were determined by the Trehalose Kit from Megazyme (Wicklow, Ireland).

LC3-II [4] = experiment: LC3-II levels in E8.75 embryos; assay type: in vivo, mouse; details: E8.75 embryos of diabetic dams
[5] = tested on: maternal diabetes-induced NTDs; experiment: In vivo mouse model of diabetic embryopathy, morphologic assessment of NTDs at E11.5
Experimental: In vivo mouse model of diabetic embryopathy and morphologic assessment of NTDs. The mouse model of diabetic embryopathy was previously described (21, 22). Briefly, female mice were intravenously (i.v.) injected daily with 75 mg/kg streptozotocin (STZ) over two days to induce diabetes. Nondiabetic WT with vehicle injection served as controls. Diabetes was defined as 12-hour fasting blood glucose levels ≥250 mg/dl, which normally occurred at 3-5 days after STZ injections. There is no residual toxic effect caused by STZ in this animal model. Embryos were gathered at E8.75 (2:00 PM at E8.5) for analysis and at E11.5 from NTD examination.
as §1
Statistical analyses. Statistical differences were determined by Student's t-test for two group comparisons and One way ANOVA for more than two groups comparisons using SigmaStat 3.5 software. In ANOVA analysis, Tukey-test was used to estimate the significance of the results. Significant difference between groups in NTD incidence was analyzed by Chi-square test.

[6] = tested on: embryonic neuroepithelial cells; experiment: GFP-LC3 puncta analysis in GFP-LC3 transgenic mice; assay type: in vivo, mouse
Experimental: GFP-LC3 puncta analysis. GFP-LC3 transgenic (Tg) mice were used to quantify autophagy in vivo. E8.75 embryos were gathered, fixed in 4% paraformaldehyde (PFA) in PBS for 30 min at 4° C., quickly frozen, and cryosectioned at […] GFP florescent images in embryonic neuroepithelial cells were recorded by confocal microscopy using a laser scanning microscope (LSM 510 META, ZEISS). GFP-LC3 punctate foci with a diameter greater than or equal to 20 pixels in each cell were calculated by Image J software according to the manufacturer's manual.

autophagy = details: in vitro; cited from earlier work
[7] = tested on: ULK1, Beclin 1, Atg3, Atg5, Ambra1, p62, Dap; experiment: Autophagy-related gene expression in E8.75 embryos; assay type: in vivo, mouse; details: diabetic group
[8] = tested on: 4-HNE, MDA, nitrotyrosine or ubiquitin-modified proteins; experiment: Levels of oxidized and ubiquitin-modified (dysfunctional) proteins in E8.75 embryos; assay type: in vivo, mouse; details: diabetic group with 5% trehalose
[9] = tested on: neurogenesis in the developing neural tube; experiment: Immunofluorescent staining of TuJ1 and Sox1 in developing neural tubes (neurogenesis); assay type: in vivo, mouse; details: neural tubes exposed to diabetes
Experimental: Immunofluorescent staining. […] Deparaffinized sections were incubated with TuJ 1 antibody (Covance, #MMS-435P) at 1:400 dilution or Sox1 antibody (Cell Signaling, #4194) at 1:100 dilution in PBS with 10% heat-inactivated donkey serum overnight at 4° C. After washes in PBS, sections were incubated with secondary antibodies, Alexa Fluor® 488 Donkey Anti-Mouse IgG to TuJ1, and Alexa Fluor® 594 Donkey Anti-Rabbit IgG to Sox1. Cell nuclei were stained with DAPI (Blue). Immunofluorescent staining was examined by immunofluorescence microscopy. In order to visualize neurogenesis throughout the anterior neural tube, serial sections through the entire anterior neural tube were analyzed and representative images were shown. The earliest neurogenesis site was found at the boundary of midbrain and hindbrain. Five embryos from five dams per group were analyzed.

NTDs = details: cited from earlier work
LC3-II [10] = experiment: LC3-II levels in cultured E8 embryos under high glucose with or without Chloroquine; details: high glucose 250 mg/dl, 25 μmol/L Chloroquine

- embryonic trehalose levels ([3]; 2% group): 15.8±1.0 μg/g tissue
- trehalose in maternal blood ([3]; 2% trehalose in drinking water): 162.0 ± 16.9 µg/mL
- embryonic trehalose levels ([3]; 5% group): 53.9±3.7 μg/g tissue
- trehalose in maternal blood ([3]; 5% trehalose in drinking water): 503.9 ± 19.3 µg/mL
- Resorption Rates ([5]; Diabetic + 2% trehalose, E11.5): 4.7
- Resorption Rates ([5]; Nondiabetic + 2% trehalose, E11.5): 4.8
- Resorption Rates ([5]; nondiabetic and diabetic dams with or without trehalose treatments): did not differ
Structure (SMILES): OC[C@H]1O[C@H](O[C@H]2O[C@H](CO)[C@@H](O)[C@H](O)[C@H]2O)[C@H](O)[C@@H](O)[C@@H]1O [trehalose]
- JNK1/2 activation and downstream effector c-Jun [1]: completely abolished maternal diabetes-induced JNK1/2 activation
- XBP1 mRNA splicing [1]: diminished XBP1 mRNA splicing
- expression or phosphorylation of ER chaperone proteins BiP, CHOP, eIF2α [1]: abrogated maternal diabetes-increased expression or phosphorylation
- expression of 7 ER chaperone genes ([1]; mRNA): abolished
- BID cleavage [2]: prevented
- caspase 3 and 8 cleavage [2]: abolished maternal diabetes-induced caspase 3 and 8 cleavage
- level of phosphorylated Bad [2]: restored
- neuroepithelial cell apoptosis (TUNEL) [2]: blocked neuroepithelial cell apoptosis
- number of defective mitochondria (neuroepithelial cells; diabetic conditions, E8.75 neuroepithelia): significantly reduced the number of defective mitochondria to a level comparable to that in the nondiabetic control group
- autophagosome formation in neuroepithelial cells (neuroepithelial cells; diabetic group, E8.75): blocked maternal diabetes-repressed autophagosome formation
- LC3-II expression (LC3-II [4]): restored maternal diabetes-diminished LC3-II expression
- maternal diabetes-induced NTDs ([5]; 2% trehalose, diabetic dams, lesser extent than 5%): significantly reduced maternal diabetes-induced NTDs
- NTD rate ([5]; Diabetic + 2% trehalose in drinking water from E5.5, E11.5, total NTD embryos/total embryos): 9.8%
- Total NTD Embryos ([5]; Diabetic + 2% trehalose, E11.5, of 41 total embryos): 4
- NTD rate ([5]; Nondiabetic + 2% trehalose in drinking water from E5.5, E11.5, total NTD embryos/total embryos): 0%
- Total NTD Embryos ([5]; Nondiabetic + 2% trehalose, E11.5, of 29 total embryos): 0
- NTD rate ([5]; embryos from diabetic dams treated with 5% trehalose water (weight/volume), calculated by litters): 4.0±2.2%
- NTD rate ([5]; embryos from nondiabetic dams with or without trehalose treatment): 0.0±0.0%
- number of autophagic GFP-LC3 puncta in neuroepithelial cells ([6]; diabetic group treated with trehalose, E8.75): restored to the level of that observed in the nondiabetic groups
- basal autophagy activities in neuroepithelial cells ([6]; nondiabetic group): did not affect basal autophagy activities
- autophagy stimulating activities (autophagy): possess autophagy stimulating activities in vitro
- expression of ULK1, Beclin 1, Atg3, Atg5, and Ambra1 [7]: blocked the downregulation
- expression of p62 and Dap [7]: blocked
- levels of 4-HNE, MDA, nitrotyrosine or ubiquitin-modified proteins [8]: blocked maternal diabetes-increased levels of all of these modified proteins
- differentiation of Sox1 positive neural progenitors [9]: corrected maternal diabetes-blocked differentiation of Sox1 positive neural progenitors
- neurogenesis (TuJ1 expressing neurons) ([9]; E9.0 to E10.5): reversed delayed neurogenesis

Structure (SMILES): O[C@H]1[C@H](O)[C@@H](O)[C@H](O)[C@@H](O)[C@H]1O [inositol]
- folate-resistant NTDs (NTDs): can prevent some of the folate-resistant NTDs

Structure (SMILES): CCN(CC)CCCC(C)Nc1ccnc2cc(Cl)ccc12 (centres unmarked) [Chloroquine]
- high glucose-induced LC3-II reduction (LC3-II [10]): did not block high glucose-induced LC3-II reduction
